Measured values from ChEMBL document CHEMBL5385882, “Rational design and appraisal of selective Cdc2-Like kinase 1 (Clk1) inhibitors as novel autophagy inducers for the treatment of acute liver injury (ALI)” (Eur J Med Chem, 2023).
Blank lines part the entries; values can stand above or below the compound they belong to. The source made the active and inactive calls. No cut-off for these calls is given here.

Assays:
[1] = target: T1, Dual specificity protein kinase CLK1 (Homo sapiens, UniProt P49759); assay: Inhibition of human 130-end recombinant CLK1 assessed as remaining activity using ERMRPRKRQGSVR as substrate by [gamma-32P]ATP binding based scintillation counting based analysis
Target sequence in this assay (P49759 whole entry): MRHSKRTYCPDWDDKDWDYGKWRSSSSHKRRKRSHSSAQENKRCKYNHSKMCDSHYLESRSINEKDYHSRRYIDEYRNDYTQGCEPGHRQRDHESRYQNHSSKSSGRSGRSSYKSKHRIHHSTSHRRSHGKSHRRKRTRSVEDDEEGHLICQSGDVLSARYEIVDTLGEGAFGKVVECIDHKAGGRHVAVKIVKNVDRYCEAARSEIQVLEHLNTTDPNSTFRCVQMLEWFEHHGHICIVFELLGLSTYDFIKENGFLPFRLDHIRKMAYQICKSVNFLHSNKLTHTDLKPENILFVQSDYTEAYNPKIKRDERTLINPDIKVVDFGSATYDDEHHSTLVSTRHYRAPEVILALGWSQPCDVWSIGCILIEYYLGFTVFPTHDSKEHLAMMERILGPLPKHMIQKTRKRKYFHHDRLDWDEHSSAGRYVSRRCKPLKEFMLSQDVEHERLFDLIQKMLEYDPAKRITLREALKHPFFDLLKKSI

[2] = Metabolic stability in human liver microsomes assessed as clearance at 10 uM incubated for 5 mins in the presence of NADPH-generating system by LC-MS/MS analysis; format: ADME, Microsome
Homo sapiens = species: Homo sapiens; assay: Selectivity index, ratio of IC50 for inhibition of human full length recombinant DYRK1A to IC50 for inhibition of human 130-end recombinant CLK1
[3] = target: T2, Dual specificity tyrosine-phosphorylation-regulated kinase 1A (Homo sapiens, UniProt Q13627); assay: Inhibition of human full length recombinant DYRK1A assessed as remaining activity using RRRFRPASPLRGPP as substrate at 100 nM by [gamma-32P]ATP binding based scintillation counting based analysis relative to control
[4] = target: T1, Dual specificity protein kinase CLK1; assay: Inhibition of human 130-end recombinant CLK1 assessed as remaining activity using ERMRPRKRQGSVR as substrate at 100 nM by [gamma-32P]ATP binding based scintillation counting based analysis relative to control
Target sequence in this assay (P49759 whole entry, looked up): as the sequence (P49759 whole entry) above

[5] = Metabolic stability in human liver microsomes assessed as half life at 10 uM incubated for 5 mins in the presence of NADPH-generating system by LC-MS/MS analysis; format: ADME, Microsome
[6] = target: T2, Dual specificity tyrosine-phosphorylation-regulated kinase 1A; assay: Inhibition of human full length recombinant DYRK1A assessed as remaining activity using RRRFRPASPLRGPP as substrate by [gamma-32P]ATP binding based scintillation counting based analysis
HeLa [7] = assay: Induction of autophagy in human HeLa cells assessed as ratio of LC3II protein to LC3I at 10 uM by Western blot analysis; format: functional, cell-based; settings: time 3-24 hrs, TDE = time-dependent effect
[8] = Cmax in Balb/c mouse at 10 mg/kg, po measured upto24 hrs by LC/MS/MS analysis; format: ADME, organism-based; design: dose 10 mg/kg, time 24 hrs, route po; settings: in vivo
Mus musculus [9] = assay: Protection against APAP-induced acute liver injury in ip dosed C57BL/6 mouse model assessed as decrease in body temperature measured after 6 hrs by H and E staining method; format: functional, organism-based; settings: dose 10-40 mg/kg
[10] = AUC (0 to t) in Balb/c mouse at 10 mg/kg, po measured upto24 hrs by LC/MS/MS analysis; format: ADME, organism-based; design: dose 10 mg/kg, time 24 hrs, route po; settings: in vivo
[11] = Cmax in Balb/c mouse at 10 mg/kg, ip measured upto24 hrs by LC/MS/MS analysis; format: ADME, organism-based; design: dose 10 mg/kg, time 24 hrs, route ip; settings: in vivo
[12] = Clearance in Balb/c mouse at 10 mg/kg, po measured upto24 hrs by LC/MS/MS analysis; format: ADME, organism-based; settings: in vivo, time 24 hrs
[13] = Oral bioavailability in Balb/c mouse at 10 mg/kg measured upto24 hrs by LC/MS/MS analysis; format: ADME, organism-based; settings: in vivo, time 24 hrs
[14] = AUC (0 to t) in Balb/c mouse at 10 mg/kg, iv measured upto24 hrs by LC/MS/MS analysis; format: ADME, organism-based; design: time 24 hrs, dose 10 mg/kg, route iv; settings: in vivo
[15] = Half life in Balb/c mouse at 10 mg/kg, ip measured upto24 hrs by LC/MS/MS analysis; format: ADME, organism-based; settings: in vivo, time 24 hrs
[16] = AUC (0 to t) in Balb/c mouse at 10 mg/kg, ip measured upto24 hrs by LC/MS/MS analysis; format: ADME, organism-based; design: time 24 hrs, dose 10 mg/kg, route ip; settings: in vivo
[17] = Half life in Balb/c mouse at 10 mg/kg, po measured upto24 hrs by LC/MS/MS analysis; format: ADME, organism-based; settings: in vivo, time 24 hrs
[18] = Clearance in Balb/c mouse at 10 mg/kg, ip measured upto24 hrs by LC/MS/MS analysis; format: ADME, organism-based; settings: in vivo, time 24 hrs
HeLa [19] = assay: Induction of autophagy in human HeLa cells assessed as degradation of SQSTM1/p62 at 10 uM incubated for 24 hrs by Western blot analysis; format: functional, cell-based
Mus musculus [20] = assay: Protection against APAP-induced acute liver injury in ip dosed C57BL/6 mouse model assessed as volume of hepatocytes measured after 6 hrs by H and E staining method; format: functional, organism-based; settings: dose 10-40 mg/kg
[21] = Cmax in Balb/c mouse at 10 mg/kg, iv measured upto24 hrs by LC/MS/MS analysis; format: ADME, organism-based; design: time 24 hrs, dose 10 mg/kg, route iv; settings: in vivo
Mus musculus [22] = assay: Protection against APAP-induced acute liver injury in ip dosed C57BL/6 mouse model assessed as necrotic hepatocytes measured after 6 hrs by H and E staining method; format: functional, organism-based; settings: dose 10-40 mg/kg
[23] = Clearance in Balb/c mouse at 10 mg/kg, iv measured upto24 hrs by LC/MS/MS analysis; format: ADME, organism-based; settings: in vivo, time 24 hrs
HeLa [24] = assay: Induction of autophagy in human HeLa cells assessed as ratio of LC3II protein to LC3I incubated for 24 hrs by Western blot analysis; format: functional, cell-based; settings: dose 0.2-10 nM
Mus musculus [25] = assay: Protection against APAP-induced acute liver injury in ip dosed C57BL/6 mouse model assessed as decrease in serum AST level measured after 6 hrs; format: functional, organism-based
[26] = target: Dual specificity protein kinase CLK1 (Mus musculus) (UniProt P22518); assay: Inhibition of Clk1 in mouse BNL CL.2 cells assessed as redistribution of serine/arginine (SR) proteins from nucleoplasmic (active form) to nuclear speckles (storage form) incubated for 24 hrs by immunofluorescence assay; format: cell-based; settings: dose 1-10 µM
Sequence of Dual specificity protein kinase CLK1 (Mus musculus) (P22518 whole entry, looked up): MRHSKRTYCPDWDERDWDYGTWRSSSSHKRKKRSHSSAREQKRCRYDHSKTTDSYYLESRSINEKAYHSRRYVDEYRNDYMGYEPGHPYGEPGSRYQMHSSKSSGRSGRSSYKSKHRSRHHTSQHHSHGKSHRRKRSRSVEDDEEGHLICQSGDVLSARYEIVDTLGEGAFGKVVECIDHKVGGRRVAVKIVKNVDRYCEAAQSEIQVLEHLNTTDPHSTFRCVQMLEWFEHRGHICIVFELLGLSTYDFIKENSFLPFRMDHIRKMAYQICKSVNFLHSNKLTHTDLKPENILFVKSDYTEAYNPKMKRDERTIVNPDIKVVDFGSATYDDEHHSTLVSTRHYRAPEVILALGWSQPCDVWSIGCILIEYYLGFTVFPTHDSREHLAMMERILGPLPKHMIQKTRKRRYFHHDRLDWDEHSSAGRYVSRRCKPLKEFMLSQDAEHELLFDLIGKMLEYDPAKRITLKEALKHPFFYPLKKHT

HeLa [27] = assay: Induction of autophagy in human HeLa cells assessed as increase in LC3II protein incubated for 24 hrs by Western blot analysis; format: functional, cell-based; settings: dose 0.2-10 µM
[28] = target: T1, Dual specificity protein kinase CLK1; assay: Binding affinity to Clk1 protein (unknown origin) assessed as inhibition of degradation in presence of 1:15 pronase to compound concentration
Target sequence in this assay (P49759 whole entry, looked up): as the sequence (P49759 whole entry) above

HeLa [29] = assay: Induction of autophagy in human HeLa cells assessed as increase in LC3II protein at 10 uM by Western blot analysis; format: functional, cell-based; settings: time 3-24 hrs, TDE = time-dependent effect
Mus musculus [30] = assay: Protection against APAP-induced acute liver injury in ip dosed C57BL/6 mouse model assessed as decrease in serum ALT level measured after 6 hrs; format: functional, organism-based; settings: dose 10-40 mg/kg
HeLa [31] = assay: Induction of autophagy in human HeLa cells infected with RFP-GFP-LC3 assessed as increased the number of yellow LC3 puncta at 10 uM after 24 hrs by confocal microscopy; format: functional, cell-based
[32] = Half life in Balb/c mouse at 10 mg/kg, iv measured upto24 hrs by LC/MS/MS analysis; format: ADME, organism-based; settings: in vivo, time 24 hrs
Mus musculus [33] = assay: Protection against APAP-induced acute liver injury in ip dosed C57BL/6 mouse model assessed as tiny vacuoles in hepatocyte cytoplasm measured after 6 hrs by H and E staining method; format: functional, organism-based; settings: dose 10-40 mg/kg

Structure (SMILES): CN1CCN(c2ccc(CNc3cnc4[nH]cc(-c5cncc(F)c5)c4c3)cc2)CC1
IC50 [1]: 42 nM
CLH [2]: 79.2 mL/min/g
Selectivity Index (Homo sapiens): 142
Activity [3]: 99%
Activity [4]: 19%
half-life at 10 µM [5]: 0.292 h
IC50 [6]: 5970 nM

Structure (SMILES): O=C(Nc1cnc2[nH]cc(-c3cncc(F)c3)c2c1)c1ccc(F)cc1
IC50 [1]: 64 nM
CLH [2]: < 12 mL/min/g
Selectivity Index (Homo sapiens): 45.3
Activity [3]: 83%
Activity [4]: 37%
half-life at 10 µM [5]: > 2 h
IC50 [6]: 2900 nM

Structure (SMILES): COc1cncc(-c2c[nH]c3ncc(NC(=O)c4ccc(Cl)cc4OC)cc23)c1
IC50 [1]: 5 nM
CLH [2]: 15 mL/min/g
Selectivity Index (Homo sapiens): 700
Activity [3]: 95%
Activity [4]: 8%
half-life at 10 µM [5]: 1.68 h
IC50 [6]: 3500 nM

Structure (SMILES): COc1cncc(-c2c[nH]c3ncc(NCc4cccc(F)c4)cc23)c1
IC50 [1]: 17 nM
CLH [2]: 80.4 mL/min/g
Selectivity Index (Homo sapiens): 119
Activity [3]: 89%
Activity [4]: 2%
half-life at 10 µM [5]: 0.325 h
IC50 [6]: 2030 nM

Structure (SMILES): O=C(Nc1cnc2[nH]cc(-c3cccnc3)c2c1)c1ccc(F)cc1
IC50 [1]: 31 nM
Selectivity Index (Homo sapiens): 72.6
Activity [3]: 90%
Activity [4]: 30%
IC50 [6]: 2250 nM

Continued by falling IC50 [1], values first:

IC50 [1]: 30 nM
CLH [2]: 65.4 mL/min/g
Selectivity Index (Homo sapiens): 63.2
Activity [3]: 85%
Activity [4]: 16%
half-life at 10 µM [5]: 0.353 h
IC50 [6]: 1900 nM
Structure (SMILES): COc1cncc(-c2c[nH]c3ncc(NCc4ccc(N5CCOCC5)cc4)cc23)c1

IC50 [1]: 24 nM
CLH [2]: 13.8 mL/min/g
Selectivity Index (Homo sapiens): 85.8
Activity [3]: 81%
Activity [4]: 13%
half-life at 10 µM [5]: 1.92 h
IC50 [6]: 2060 nM
Structure (SMILES): COc1cncc(-c2c[nH]c3ncc(NC(=O)c4ccc(F)cc4)cc23)c1

IC50 [1]: 15 nM
CLH [2]: 76.8 mL/min/g
Selectivity Index (Homo sapiens): 156
Activity [3]: 88%
Activity [4]: 6%
half-life at 10 µM [5]: 0.338 h
IC50 [6]: 2330 nM
Structure (SMILES): COc1cncc(-c2c[nH]c3ncc(NCc4ccc(F)cc4)cc23)c1

Cmax [8]: 1460 ng/mL
AUC(0-t) at 24 h [10]: 1860 ng·h/mL
IC50 [1]: 5 nM
Cmax [11]: 4650 ng/mL
CL/F [12]: 91.8 mL/min/kg
CLH [2]: < 12 mL/min/g
bioavailability [13]: 19.5%
Selectivity Index (Homo sapiens): 304
AUC(0-t) at 24 h [14]: 9520 ng·h/mL
Activity [3]: 72%
half-life [15]: 3.27 h
AUC(0-t) at 24 h [16]: 5010 ng·h/mL
half-life [17]: 5.29 h
Activity [4]: 2%
CL/F [18]: 59.7 mL/min/kg
half-life at 10 µM [5]: > 2 h
Cmax [21]: 13200 ng/mL
clearance [23]: 17.5 mL/min/kg
inhibition [26]: Dose-Dependent Effect
Activity [28]: Dose-Dependent Effect
IC50 [6]: 1520 nM
half-life [32]: 2.96 h
Structure (SMILES): CN1CCN(c2ccc(C(=O)Nc3cnc4[nH]cc(-c5cncc(F)c5)c4c3)cc2)CC1
Activity (HeLa [7]): Tde
Activity (Mus musculus [9]): Dose-Dependent Effect
Activity (HeLa [19]): Active
Activity (Mus musculus [20]): Dose-Dependent Effect
Activity (Mus musculus [22]): Dose-Dependent Effect
Activity (HeLa [24]): Dose-Dependent Effect
Activity (Mus musculus [25]): Dose-Dependent Effect
Activity (HeLa [27]): Dose-Dependent Effect
Activity (HeLa [29]): Tde
Activity (Mus musculus [30]): Dose-Dependent Effect
Activity (HeLa [31]): Active
Activity (Mus musculus [33]): Dose-Dependent Effect
